From patent US20260325561A1, “4'-SUBSTITUTED NUCLEOSIDES AND NUCLEOTIDES AS ANTIVIRAL AGENTS” (THE SCRIPPS RESEARCH INSTITUTE, priority 2023, published 2026)

Key:
[1] = in vitro; settings: human, hep2 cells
[2] = in vitro; settings: human, hct-8 cells
[3] = tested on: YFV; assay: microbe, parasite or virus in culture; type: cell-based, YFV strain 17D
[4] = in vitro; settings: human, hepg2 cells
[5] = tested on: Flu A H1N1; assay: Antiviral activity against Flu A H1N1; type: cell-based, Flu A H1N1 California/07/2009; settings: Flu A H1N1, FIG. 1
Protocol: (§1) All other antiviral assays were run at Utah State/Justin Julander through NIAID Preclinical Services. The following virus strains and cell lines were used:
(§2) Compounds were added to cells prior to addition of virus at an appropriate MOI to cause visible CPE. […] For compounds with an SI.5, a virus yield reduction assay was conducted, where supernatant collected from the CPE assay was titered for virus. The EC90 was calculated as the amount of compound needed to reduce the virus titer by 1 log 10.

[6] = tested on: COXV-B3; assay: Antiviral activity against COXV-B3; type: cell-based, COXV-B3 HA 201933; settings: COXV-B3, FIG. 1
Protocol: as §1, §2

[7] = tested on: Polio PV-1; type: cell-based, PV-1 CHAT
[8] = tested on: HRV 16; assay: microbe, parasite or virus in culture; type: cell-based, Human Rhinovirus 16 strain 11757
[9] = tested on: SARS-CoV-1; type: cell-based
[10] = tested on: RSV A2; assay: microbe, parasite or virus in culture; type: cell-based
[11] = tested on: HCoV-OC43; assay: microbe, parasite or virus in culture; type: cell-based, Human Coronavirus
[12] = in vitro; settings: human, h1 hela cells
[13] = Cytotoxicity, HFF; type: cell-based; settings: human, hff cells; read-out: HCMV/HFF CC50
[14] = tested on: CHIKV; assay: microbe, parasite or virus in culture; type: cell-based, CHIKV strain 181/25
[15] = tested on: DENV-2; assay: microbe, parasite or virus in culture; type: cell-based, DENV-2 16681; settings: for SI (selectivity), DENV-2 HepG2 assay: SI=CC50/EC50
[16] = tested on: ZIKV; assay: microbe, parasite or virus in culture; type: cell-based, ZIKV MR766
[17] = tested on: HRV 14; assay: microbe, parasite or virus in culture; type: cell-based, Human Rhinovirus 14 strain 1059
[18] = in vitro; settings: human, mrc5 cells
[19] = tested on: HCMV; assay: HCMV/HFF antiviral assay; type: cell-based; settings: Human betaherpesvirus 5, HFF
[20] = in vitro; settings: human, hela-ace2 cells
[21] = tested on: HCoV-229E; assay: microbe, parasite or virus in culture; type: cell-based
[22] = tested on: MEV; assay: Antiviral activity against MEV; type: cell-based, MEV CC; settings: FIG. 1
Protocol: as §1, §2

[23] = tested on: Polio PV-3; type: cell-based, PV-3 WM-3
[24] = tested on: MERS-CoV; type: cell-based, MERS-CoV EMC
[25] = tested on: SARS-CoV-2; assay: microbe, parasite or virus in culture; type: cell-based, SARS-CoV-2 strain USA-WA1/2020
[26] = tested on: DENV; settings: cited from earlier work
[27] = cited from earlier work
[28] = Cytotoxicity from screening; type: cell-based

**Q.** What does the source list for Nc1ncnc2c1ccn2[C@@H]1O[C@](F)(CO)[C@@H](O)[C@H]1O [Example 1, (2S,3S,4R,5R)-5-(4-amino-7H-pyrrolo[2,3-d]pyrimidin-7-yl)-2-fluoro-2-(hydroxymethyl)tetrahydrofuran-3,4-diol]?
**A.** CC50 [1]: 1 to 10 µM; CC50 [2]: 1 to 10 µM; efficacy vs RDV parent nucleosides and N-hydroxycytidine, YFV [3]: more efficacious than RDV parent nucleosides and N-hydroxycytidine; EC50 ([3]; Yellow fever virus, HepG2, 24 h, read-out: YFV / HepG2 EC50): < 0.1 µM; CC50 at 72 h [4]: 1 to 10 µM; efficacy vs RDV parent nucleosides and N-hydroxycytidine, Flu A H1N1 [5]: more efficacious than RDV parent nucleosides and N-hydroxycytidine; efficacy vs RDV parent nucleosides and N-hydroxycytidine, COXV-B3 [6]: more efficacious than RDV parent nucleosides and N-hydroxycytidine; efficacy vs RDV parent nucleosides and N-hydroxycytidine, Polio PV-1 [7]: more efficacious than RDV parent nucleosides and N-hydroxycytidine; efficacy vs RDV parent nucleosides and N-hydroxycytidine, HRV16 ([8]; HRV16, FIG. 1): more efficacious than RDV parent nucleosides and N-hydroxycytidine; EC50 ([8]; Rhinovirus A, H1-HeLa, 48 h, read-out: HRV / H1 HeLa A16 EC50): 0.1 to 1 µM; efficacy vs RDV parent nucleosides and N-hydroxycytidine, SARS-CoV-1 [9]: more efficacious than RDV parent nucleosides and N-hydroxycytidine; efficacy vs RDV parent nucleosides and N-hydroxycytidine, RSV A2 ([10]; RSV A2, FIG. 1): more efficacious than RDV parent nucleosides and N-hydroxycytidine; EC50 ([10]; human respiratory syncytial virus, HEp-2, 72 h, read-out: RSV A2 / Hep2 EC50): < 0.1 µM; EC50 ([11]; Betacoronavirus 1, OC43, HCT-8, 48 h, read-out: HCoV-OC43/HCT-8 EC50): 0.1 to 1 µM; efficacy vs RDV parent nucleosides and N-hydroxycytidine, HCoV-OC43 ([11]; HCoV-OC43, FIG. 1): more efficacious than RDV parent nucleosides and N-hydroxycytidine; CC50 [12]: 1 to 10 µM; CC50 [13]: 1 to 10 µM; EC50 ([14]; Chikungunya virus, HepG2, 24 h, read-out: CHIKV / HepG2 EC50): < 0.1 µM; efficacy vs RDV parent nucleosides and N-hydroxycytidine, CHIKV ([14]; alphavirus CHIKV, FIG. 1): more efficacious than RDV parent nucleosides and N-hydroxycytidine; activities and selectivity vs known compounds with the same MOA, DENV ([15]; DENV): improved activities and selectivity; activities and selectivity compared to tubercidin and NITD-008 ([15]; DENV2 HepG2 assay): improved activities and selectivity compared to tubercidin and NITD-008; efficacy vs RDV parent nucleosides and N-hydroxycytidine, DENV-2 ([15]; DENV-2, FIG. 1): more efficacious than RDV parent nucleosides and N-hydroxycytidine; EC50 ([15]; Dengue virus, DENV2, HepG2, 24 h, read-out: DENV-2 / HepG2 EC50): < 0.1 µM; efficacy vs RDV parent nucleosides and N-hydroxycytidine, ZIKV ([16]; ZIKV, FIG. 1): more efficacious than RDV parent nucleosides and N-hydroxycytidine; EC50 ([16]; Zika virus, HepG2, 24 h, read-out: ZIKV / HepG2 EC50): < 0.1 µM; efficacy vs RDV parent nucleosides and N-hydroxycytidine, HRV14 ([17]; HRV14, FIG. 1): more efficacious than RDV parent nucleosides and N-hydroxycytidine; EC50 ([17]; Rhinovirus B, H1-HeLa, 48 h, read-out: HRV / H1 HeLa B 14 EC50): 0.1 to 1 µM; CC50 [18]: 10 to 99 µM; EC50 [19]: 1 to 10 µM; CC50 at 24 h [20]: 1 to 10 µM; efficacy vs RDV parent nucleosides and N-hydroxycytidine, HCoV-229E ([21]; HCoV-229E, FIG. 1): more efficacious than RDV parent nucleosides and N-hydroxycytidine; EC50 ([21]; Human coronavirus 229E, MRC5, 120 h, read-out: HCoV-229E/MRC5 EC50): 0.1 to 1 µM; efficacy vs RDV parent nucleosides and N-hydroxycytidine, MEV [22]: more efficacious than RDV parent nucleosides and N-hydroxycytidine; efficacy vs RDV parent nucleosides and N-hydroxycytidine, Polio PV-3 [23]: more efficacious than RDV parent nucleosides and N-hydroxycytidine; efficacy vs RDV parent nucleosides and N-hydroxycytidine, MERS-CoV [24]: more efficacious than RDV parent nucleosides and N-hydroxycytidine; activities and selectivity vs known compounds with the same MOA, SARS-CoV-2 ([25]; SARS-CoV-2): improved activities and selectivity; efficacy vs RDV parent nucleosides and N-hydroxycytidine, SARS-CoV-2 ([25]; SARS-CoV-2, FIG. 1): more efficacious than RDV parent nucleosides and N-hydroxycytidine; EC50 ([25]; Severe acute respiratory syndrome coronavirus 2, HeLa-ACE2, 24 h, read-out: SARS-CoV-2 / HeLa-ACE2 EC50): < 0.1 µM

**Q.** Which “efficacy in DENV-infected mouse model” value [26] does the source give for C#C[C@@]1(O)[C@H](O)[C@@H](CO)O[C@H]1n1ccc2c(N)ncnc21 [NITD-008, reference compound] here?
**A.** good efficacy

**Q.** And the “two-week tox study outcome” value [27]?
**A.** failed

**Q.** What about the “SI (selectivity), DENV-2 HepG2 assay” value [15] of the same molecule?
**A.** 52

**Q.** And the “selectivity compared to tubercidin” value ([15]; DENV-2 HepG2 assay, FIG. 1)?
**A.** improved selectivity compared to tubercidin

**Q.** Which results are given for Nc1ncnc2c1ccn2[C@@H]1O[C@H](CO)[C@@H](O)[C@H]1O [Tubercidin, reference compound]?
**A.** cytotoxicity from screening [28]: significant cytotoxicity; antiviral potency against DENV ([15]; DENV, screening): high antiviral potency; SI (selectivity), DENV-2 HepG2 assay [15]: 2; antiviral potency against SARS-CoV-2 ([25]; SARS-CoV-2, screening): high antiviral potency
